We go through six compounds from ChEMBL document CHEMBL4304832, “Novel Pyrazole-Containing Compounds Active against Mycobacterium tuberculosis” (ACS Med Chem Lett, 2019).

pIC50: −log10 of the molar value. Converted amounts (≈) assume the structure as drawn.

A short description of data set [1]: Permeability of the compound in pH 7.05 phosphate buffer incubated for 3 hrs by artificial membrane permeability assay based LCMS analysis. It counts as ADME. To be noted: PAMPA, read-out: permeability.
Data set [2] is described as follows: Protection Index, ratio of CC50 for human HepG2 cells to MIC for Mycobacterium tuberculosis H37Rv. It counts as toxicity. To be noted: read-out: PI.
Data set [3] in a line: Kinetic solubility of the compound in pH 7.4 phosphate buffered saline. It counts as physicochemical. To be noted: read-out: Kinetic_solubility.
For data set [4], the system named is Mycobacterium tuberculosis. The data set can be described thus: Antitubercular activity against Mycobacterium tuberculosis H37Rv incubated for 6 days by resazurin dye based fluorescence assay. It counts as functional. To be noted: 144 h.
Data set [5] has as its target Albumin (Homo sapiens, UniProt P02768). Description: Binding affinity to HSA by HPLC analysis. It counts as ADME. To be noted: isolated protein.
The subject of data set [6] is Mycobacterium tuberculosis. The data set can be described thus: Antitubercular activity against Mycobacterium tuberculosis H37Rv infected in C57BL/6 mouse assessed as reduction in bacterial load in lungs at 200 mg/kg administered once daily starting from 5 days post infection for 4 consecutive days and measured on day 9. It counts as functional.
Data set [7] is described as follows: Chromatographic lipophilicity, log D of compound in PBS ay pH 7.4 by UV-HPLC analysis. It counts as physicochemical. To be noted: PBS.
Data set [8] addresses Voltage-gated inwardly rectifying potassium channel KCNH2 (Homo sapiens, UniProt Q12809). The data set can be described thus: Inhibition of human ERG.
Data set [9] can be described thus: Cytotoxicity against human HepG2 cells incubated for 48 hrs by CellTiter Glo assay. It counts as cell-based.
The nature of data set [10]: Intrinsic clearance in human liver microsomes at 0.5 uM measured up to 30 mins in presence of NADPH by UPLC/MS/MS analysis. It counts as ADME, Microsome. To be noted: 0.5 h.
A short description of data set [11]: Solubility of the compound in FASSIF at 1 mg incubated for 4 hrs by UPLC-MS analysis. It counts as physicochemical.
In data set [12] the test system is Mycobacterium tuberculosis. Description: Antitubercular activity against Mycobacterium tuberculosis H37Rv infected in C57BL/6 mouse assessed as reduction in bacterial load in lungs at 30 mg/kg administered once daily starting from 5 days post infection for 4 consecutive days and measured on day 9. It counts as functional.

Chain of Voltage-gated inwardly rectifying potassium channel KCNH2 (Q12809 whole entry): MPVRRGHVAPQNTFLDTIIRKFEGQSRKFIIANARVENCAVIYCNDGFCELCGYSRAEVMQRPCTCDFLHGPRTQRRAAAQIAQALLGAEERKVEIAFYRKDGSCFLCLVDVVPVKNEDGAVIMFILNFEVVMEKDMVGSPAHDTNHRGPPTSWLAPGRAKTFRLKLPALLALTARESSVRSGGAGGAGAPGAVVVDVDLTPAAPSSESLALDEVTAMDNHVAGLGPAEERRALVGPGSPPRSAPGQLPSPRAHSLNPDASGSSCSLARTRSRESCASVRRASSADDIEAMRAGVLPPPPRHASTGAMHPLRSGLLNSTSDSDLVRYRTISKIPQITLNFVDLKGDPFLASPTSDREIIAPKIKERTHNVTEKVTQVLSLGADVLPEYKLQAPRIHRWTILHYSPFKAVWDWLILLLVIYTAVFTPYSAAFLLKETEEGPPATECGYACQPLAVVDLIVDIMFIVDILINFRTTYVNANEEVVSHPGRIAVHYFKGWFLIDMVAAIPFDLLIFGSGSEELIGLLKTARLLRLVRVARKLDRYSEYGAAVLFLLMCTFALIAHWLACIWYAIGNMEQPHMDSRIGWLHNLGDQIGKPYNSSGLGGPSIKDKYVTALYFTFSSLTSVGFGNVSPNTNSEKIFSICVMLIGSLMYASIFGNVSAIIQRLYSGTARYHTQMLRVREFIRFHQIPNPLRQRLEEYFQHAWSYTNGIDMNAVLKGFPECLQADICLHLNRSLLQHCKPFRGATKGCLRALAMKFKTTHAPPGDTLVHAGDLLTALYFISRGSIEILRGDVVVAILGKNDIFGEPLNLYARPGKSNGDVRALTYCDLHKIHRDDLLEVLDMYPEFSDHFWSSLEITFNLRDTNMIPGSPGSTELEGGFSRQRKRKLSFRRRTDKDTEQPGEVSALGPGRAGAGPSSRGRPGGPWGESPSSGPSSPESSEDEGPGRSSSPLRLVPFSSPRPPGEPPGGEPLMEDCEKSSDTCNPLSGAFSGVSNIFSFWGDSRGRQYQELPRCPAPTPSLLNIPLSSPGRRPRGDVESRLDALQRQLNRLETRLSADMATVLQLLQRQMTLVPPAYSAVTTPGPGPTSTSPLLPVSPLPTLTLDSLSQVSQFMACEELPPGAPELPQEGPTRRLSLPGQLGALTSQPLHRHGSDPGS
Chain of Albumin (P02768 whole entry): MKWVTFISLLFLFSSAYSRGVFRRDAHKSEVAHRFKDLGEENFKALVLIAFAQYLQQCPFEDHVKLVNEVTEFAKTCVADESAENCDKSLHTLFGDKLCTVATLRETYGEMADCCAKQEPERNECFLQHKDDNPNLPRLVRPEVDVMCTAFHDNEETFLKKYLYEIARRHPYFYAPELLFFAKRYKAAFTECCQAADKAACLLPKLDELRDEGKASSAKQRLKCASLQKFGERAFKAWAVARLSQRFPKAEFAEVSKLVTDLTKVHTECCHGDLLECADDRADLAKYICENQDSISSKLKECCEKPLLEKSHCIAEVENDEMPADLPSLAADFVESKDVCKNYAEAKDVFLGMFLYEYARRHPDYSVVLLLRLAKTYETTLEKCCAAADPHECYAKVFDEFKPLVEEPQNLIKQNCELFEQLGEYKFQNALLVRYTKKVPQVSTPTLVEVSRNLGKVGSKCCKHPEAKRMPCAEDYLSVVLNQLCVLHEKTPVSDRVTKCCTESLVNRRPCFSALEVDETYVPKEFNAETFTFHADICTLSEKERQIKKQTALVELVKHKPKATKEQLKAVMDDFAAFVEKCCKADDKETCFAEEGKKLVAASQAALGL

With `COC1CCN(Cc2cc(-c3ccc(C(C)C)cc3)n(-c3ccc(F)cc3)n2)CC1`, the Papp at 3 h in data set [1] came out at 44 ×10⁻⁶ cm/s. Moreover, the selectivity ratio in data set [2] came out at 105. Also, the solubility kinetic in data set [3] was determined as 152 µM (≈ 61.9 µg/mL). The MIC in data set [4] stood at 0.3 µM (≈ 0.122 µg/mL). In addition, the Activity turned out to be 96.42% in [5] and 1.5 log10CFU in data set [6]. Further, in data set [7], the chromatographic logD was determined as 7.31. The compound also had a pIC50 in [8] of 5.20. Besides, the cytotoxic concentration (CC50) at 48 h in [9] amounted to 31.6 µM.
As to `CC(C)c1ccc(-c2cc(CN3CCOCC3)nn2C2CCC2)cc1`, the Papp at 3 h in [1] worked out at 61 ×10⁻⁶ cm/s. For the same compound, the selectivity ratio in data set [2] stood at 125. The solubility kinetic in data set [3] fell in the range of 305 to 306 µM. Further, the CLH in data set [10] was 2.8 mL/min/g. Also, 0.4 µM (≈ 0.136 µg/mL) was the least that counted as inhibitory in data set [4] (MIC). Further, the Activity in data set [5] is listed as 96.72%; in data set [6], 0.3 log10CFU. Besides, the solubility at 4 h in data set [11] stood at 139 µg/mL (≈ 409 µM). Further, in data set [7], the chromatographic logD was 7.37. Besides, the pIC50 in [8] was 4.49. Further, in data set [9], the CC50 at 48 h was 50 µM.
In the case of `COc1c(N2C[C@@H]3CCCN[C@@H]3C2)c(F)cc2c(=O)c(C(=O)O)cn(C3CC3)c12` [MOXIFLOXACIN], the Activity in [12] is listed as 3.5 log10CFU.
`CC(C)c1ccc(-c2cc(CN3CCOCC3)nn2C2CCCCC2)cc1`: the Papp at 3 h in data set [1] came out at 35 ×10⁻⁶ cm/s. In [2], the selectivity ratio worked out at 158. For the same compound, in data set [3], the solubility kinetic turned out to be 78.5 µM (≈ 28.9 µg/mL). Further, the CLH in [10] came out at 3.4 mL/min/g. Besides, in [4], the lowest concentration to inhibit growth (MIC) was 0.4 µM (≈ 0.147 µg/mL). Also, the Activity in data set [5] was 97.11%; in data set [6], 0.4 log10CFU. The compound further yielded a solubility at 4 h in data set [11] of 100 µg/mL (≈ 272 µM). Besides, the chromatographic logD in data set [7] stood at 8.29. In data set [8], the pIC50 was less than 4.30. The CC50 at 48 h in data set [9] came to 63.1 µM.
As for `Cc1c(CN2CCOCC2)cc(-c2ccc(C(C)C)cc2)n1-c1ccc(F)cc1`, the selectivity ratio in data set [2] is 333. The solubility kinetic in [3] is less than 1 µM. For the same compound, inhibition of growth in data set [4] (MIC) required 0.12 µM (≈ 0.0471 µg/mL). Further, the Activity in data set [5] came out at 98.37%. For the same compound, the solubility at 4 h in [11] is 5 µg/mL (≈ 12.7 µM). Besides, the chromatographic logD in [7] was 8.1.
For `COC1CCN(Cc2cc(-c3ccc(C(F)(F)F)cc3)n(-c3ccc(F)cc3)n2)CC1`, the Papp at 3 h in data set [1] is 17 ×10⁻⁶ cm/s. Further, the selectivity ratio in data set [2] amounted to 105. Also, the solubility kinetic in [3] came to 258 µM (≈ 112 µg/mL). In addition, the MIC in [4] was found to be 0.3 µM (≈ 0.13 µg/mL). This compound also displayed an Activity in [5] of 96.47%. Besides, the chromatographic logD in data set [7] came to 6.67. The same compound had a pIC50 in [8] of 5.49. In addition, in data set [9], it took 31.6 µM to reach half-maximal cytotoxicity (CC50 at 48 h).
